Source: patent US20100068150A1, “Selective Caspase Inhibitors” (The Board of Trustees of the Leland Stanford Junior …, priority 2006, published 2010)

Experiments:
Assay type in all cases: biochemical
Caspase-3 = target: T1, Caspase-3 (Homo sapiens, UniProt P42574); test: Kinetic compound screening, progress curve method, caspase-3; settings: for Ki(app) Caspase-3: Table III, Ki(app) = Kass or Kobs/I, 5 nM active caspase-3; for Caspase-3 Ki(app): Table IV
T1 sequence (P42574 29-175 limits assumed): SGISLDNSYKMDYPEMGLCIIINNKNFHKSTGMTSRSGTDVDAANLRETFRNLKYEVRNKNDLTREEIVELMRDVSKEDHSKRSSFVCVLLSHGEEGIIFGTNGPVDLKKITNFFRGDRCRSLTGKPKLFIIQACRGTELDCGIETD
T1 sequence (P42574 176-277 limits assumed): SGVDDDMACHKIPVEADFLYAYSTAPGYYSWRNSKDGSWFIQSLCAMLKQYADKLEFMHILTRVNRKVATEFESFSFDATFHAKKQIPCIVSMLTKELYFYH
Source text: (§1) Table III below presents Ki(app) values for select AB compounds. Ki(app) values (also called Kass or Kobs/I) represent the speed of inhibitor binding to a target enzyme. Units are [M^−1s^−1]. NI indicates no inhibition at concentrations tested. Parent compounds AB09, ABo8, and AB07 that include the optimal substrate specificity sequences for caspases-3, […] as determined by Thornberry and colleagues (Thornberry et al., 19970 are included between double lines.
(§2) The inhibitors AB07 (NP-LEHD-AOMK, caspase-9), AB08 (NP-LETD-AOMK, caspase-8), and AB09 (NP-DEVD-AOMK, caspase-3) were synthesized and kinetic inhibition constants (Kiapp) were obtained for all compounds for caspases 3, 7, 8 and 9 using the progress curve method for pseudo-first order reactions kinetics (Salvesen, 1989) (structures shown in Table I). […] Ki(app) values (also called Kass or Kobs/I) represent the speed of inhibitor binding to a target enzyme. Units are [M-1s-1]. NI indicates no inhibition at concentrations tested, ND indicates data not determined, SD indicates standard deviation.
(§3) Compound screening was completed using the progress curve method as described (Salvesen, 1989). All screening was carried out in caspase reaction buffer. The caspase-9 specific compounds AB38, 40, 41 and 42 were screened in caspase reaction buffer and in caspase buffer with 1M sodium citrate instead of sucrose as described (Pop, 2006) The concentrations of active caspases used is as follows: 5 nM active caspase-3, 5 nM active caspase-7, 10 nM active caspase-8, and 50 nM active caspase-9. To ensure full activation, caspases 3/7, 8 and 9 were preincubated at 37° C. for 5, 10, or 40 minutes respectively before kinetic measurements were made.

Caspase-8 = Caspase-8 (Homo sapiens, UniProt Q14790); test: Kinetic compound screening, progress curve method, caspase-8; settings: for Ki(app) Caspase-8: Table III, Ki(app) = Kass or Kobs/I, 10 nM active caspase-8; for Caspase-8 Ki (app): Table IV, NI = no inhibition at concentrations tested
Source text: as §1, §2, §3

Caspase-9 = target: T2, Caspase-9 (Homo sapiens, UniProt P55211); test: Kinetic compound screening, progress curve method, caspase-9; settings: for Ki(app) Caspase-9: Table III, Ki(app) = Kass or Kobs/I, 50 nM active caspase-9; for Ki(app) Caspase-9 / Caspase-9 Ki (app): NI = no inhibition at concentrations tested; for Caspase-9 Ki (app): Table IV
T2 sequence (P55211 1-416): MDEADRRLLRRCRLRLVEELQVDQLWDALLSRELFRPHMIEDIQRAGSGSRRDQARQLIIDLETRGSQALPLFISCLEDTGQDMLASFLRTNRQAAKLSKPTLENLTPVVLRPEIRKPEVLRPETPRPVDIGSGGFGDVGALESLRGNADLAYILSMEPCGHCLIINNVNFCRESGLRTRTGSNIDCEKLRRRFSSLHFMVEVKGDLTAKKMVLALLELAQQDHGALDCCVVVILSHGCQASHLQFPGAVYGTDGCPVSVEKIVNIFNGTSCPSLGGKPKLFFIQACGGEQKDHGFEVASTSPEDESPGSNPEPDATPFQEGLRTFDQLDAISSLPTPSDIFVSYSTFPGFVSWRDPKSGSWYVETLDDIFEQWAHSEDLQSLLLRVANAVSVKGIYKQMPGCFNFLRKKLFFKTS
Source text: as §1, §2, §3

Caspase-7 = target: T3, Caspase-7 (Homo sapiens, UniProt P55210); test: Kinetic compound screening, progress curve method, caspase-7; settings: for Ki(app) Caspase-7: Table III, Ki(app) = Kass or Kobs/I, 5 nM active caspase-7; for Caspase-7 Ki (app): Table IV
T3 sequence (P55210 1-303): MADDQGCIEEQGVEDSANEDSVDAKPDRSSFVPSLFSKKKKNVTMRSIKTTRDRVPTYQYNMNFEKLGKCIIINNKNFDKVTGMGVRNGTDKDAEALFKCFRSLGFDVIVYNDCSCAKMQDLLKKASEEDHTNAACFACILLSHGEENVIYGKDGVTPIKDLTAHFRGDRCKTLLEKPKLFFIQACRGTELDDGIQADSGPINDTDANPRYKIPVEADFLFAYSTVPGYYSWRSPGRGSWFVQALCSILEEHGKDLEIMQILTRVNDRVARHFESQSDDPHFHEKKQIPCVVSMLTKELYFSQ
Source text: as §1, §2, §3

Caspase-8, sequence (Q14790 217-479): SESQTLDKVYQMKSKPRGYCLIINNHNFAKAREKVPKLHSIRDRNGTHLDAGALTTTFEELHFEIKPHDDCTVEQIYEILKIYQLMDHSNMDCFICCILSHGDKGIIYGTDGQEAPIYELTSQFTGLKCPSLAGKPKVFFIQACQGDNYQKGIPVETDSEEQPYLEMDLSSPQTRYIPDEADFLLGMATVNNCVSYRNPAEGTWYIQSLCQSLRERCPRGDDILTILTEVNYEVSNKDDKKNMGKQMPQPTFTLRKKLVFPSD

## Cc1cccc(C)c1C(=O)OCC(=O)[C@H](CC(=O)O)NC(=O)[C@H](Cc1cc[nH]c1)NC(=O)[C@H](CCC(=O)O)NC(=O)[C@H](CC(C)C)NC(=O)Cc1ccc(O)c([N+](=O)[O-])c1 [AB07, Np-L-E- H-D-DMBA]
Caspase-3
  Ki(app) Caspase-3: 75,295 M^−1s^−1
  Caspase-3 Ki(app): 75,295 M-1s-1
Caspase-8
  inhibition of caspase-8, in words: more rapid inhibition of caspase-8
  Ki(app) Caspase-8: 506,912 M^−1s^−1
  Caspase-8 Ki (app): 506,912 M-1s-1
Caspase-9
  Ki(app) Caspase-9: 20,141 M^−1s^−1
  Caspase-9 Ki (app): 41 M⁻¹ s⁻¹
Caspase-7
  Ki(app) Caspase-7: 10,447 M^−1s^−1
  Caspase-7 Ki (app): 10,447 M-1s-1

## Cc1cccc(C)c1C(=O)OCC(=O)[C@H](CC(=O)O)NC(=O)[C@@H](NC(=O)[C@H](CCC(=O)O)NC(=O)[C@H](CC(C)C)NC(=O)Cc1ccc(O)c([N+](=O)[O-])c1)C(C)O (stereo partly drawn) [AB08, Np-L-E- T-D-DMBA]
Caspase-3
  Ki(app) Caspase-3: 127,835 M^−1s^−1
  Caspase-3 Ki(app): 127,835 M-1s-1
Caspase-8
  Ki(app) Caspase-8: 599,788 M^−1s^−1
  Caspase-8 Ki (app): 599,788 M-1s-1
Caspase-9
  Ki(app) Caspase-9: <5,000 M^−1s^−1
  Caspase-9 Ki (app): <5,000 M-1s-1
Caspase-7
  Ki(app) Caspase-7: 19,424 M^−1s^−1
  Caspase-7 Ki (app): 19,424 M-1s-1

## Cc1cccc(C)c1C(=O)OCC(=O)[C@H](CC(=O)O)NC(=O)C1CCCN1C(=O)[C@@H](CCC(=O)O)NC(=O)[C@H](CC(=O)O)NC(=O)Cc1ccc(O)c([N+](=O)[O-])c1 (stereo partly drawn) [AB11, NP-D-E- P-D-DMBA]
Caspase-3
  Ki(app) Caspase-3: 2,482,333 M^−1s^−1
  Caspase-3 Ki(app): 2,482,333 M-1s-1
Caspase-8
  Ki(app) Caspase-8: 580,547 M^−1s^−1
  Caspase-8 Ki (app): 580,547 M-1s-1
Caspase-9
  Ki(app) Caspase-9: 47,362 M^−1s^−1
  Caspase-9 Ki (app): 47,362 M-1s-1
Caspase-7
  Ki(app) Caspase-7: 199,341 M^−1s^−1
  Caspase-7 Ki (app): 199,341 M-1s-1

## Cc1ccc(C[C@H](NC(=O)[C@H](CC(=O)O)NC(=O)Cc2ccc(O)c([N+](=O)[O-])c2)C(=O)N[C@H](C(=O)N[C@@H](CC(=O)O)C(=O)COC(=O)c2c(C)cccc2C)C(C)C)cc1 [AB12, Np-D-E-29-V-D-DMBA]
Caspase-3
  Ki(app) Caspase-3: 5,652,900 M^−1s^−1
  Caspase-3 Ki(app): 5,652,900 M-1s-1
Caspase-8
  Ki(app) Caspase-8: 271,626 M^−1s^−1
  Caspase-8 Ki (app): 271,626 M-1s-1
Caspase-7
  Ki(app) Caspase-7: 783,840 M^−1s^−1
  Caspase-7 Ki (app): 783,840 M-1s-1

## Cc1cccc(C)c1C(=O)OCC(=O)[C@H](CC(=O)O)NC(=O)[C@@H](NC(=O)[C@@H](NC(=O)[C@H](CC(=O)O)NC(=O)Cc1ccc(O)c([N+](=O)[O-])c1)c1ccccc1)C(C)C [AB13, Np-D-E-34-V-D-DMBA]
Caspase-3
  Ki(app) Caspase-3: 3,416,050 M^−1s^−1
  Caspase-3 Ki(app): 3,416,050 M-1s-1
Caspase-8
  Ki(app) Caspase-8: <5,000 M^−1s^−1
  Caspase-8 Ki (app): <5,000 M-1s-1
Caspase-7
  Ki(app) Caspase-7: 279,519 M^−1s^−1
  Caspase-7 Ki (app): 279,519 M-1s-1

## Cc1cccc(C)c1C(=O)OCC(=O)[C@H](CC(=O)O)NC(=O)[C@@H](NC(=O)[C@@H](NC(=O)[C@H](Cc1ccc2ccccc2c1)NC(=O)Cc1ccc(O)c([N+](=O)[O-])c1)c1ccccc1)C(C)C [AB15, Np-26-34-V-D-DMBA]
Caspase-3
  Caspase-3 Ki(app): 133,705 M-1s-1

## Cc1cccc(C)c1C(=O)OCC(=O)[C@H](CC(=O)O)NC(=O)[C@@H](NC(=O)[C@H](Cc1ccccn1)NC(=O)[C@H](Cc1ccc2ccccc2c1)NC(=O)Cc1ccc(O)c([N+](=O)[O-])c1)C(C)C [AB16, Np-26-3-V-D-DMBA]
Caspase-3
  Ki(app) Caspase-3: 484,495 M^−1s^−1
  Caspase-3 Ki(app): 484,495 M-1s-1
Caspase-8
  Ki(app) Caspase-8: 121,650 M^−1s^−1
  Caspase-8 Ki (app): 121,650 M-1s-1
Caspase-7
  Ki(app) Caspase-7: 24,185 M^−1s^−1
  Caspase-7 Ki (app): 24,185 M-1s-1

## Cc1cccc(C)c1C(=O)OCC(=O)[C@H](CC(=O)O)NC(=O)[C@@H](NC(=O)C(CCC(=O)O)NC(=O)[C@H](Cc1ccc2ccccc2c1)NC(=O)Cc1ccc(O)c([N+](=O)[O-])c1)C(C)C (stereo partly drawn) [AB17, Np-26-E-V-D-DMBA]
Caspase-3
  Ki(app) Caspase-3: 781,733 M^−1s^−1
  Caspase-3 Ki(app): 781,733 M-1s-1
Caspase-8
  Ki(app) Caspase-8: 126,323 M^−1s^−1
  Caspase-8 Ki (app): 126,323 M-1s-1
Caspase-7
  Ki(app) Caspase-7: 448,155 M^−1s^−1
  Caspase-7 Ki (app): 448,155 M-1s-1

## Cc1cccc(C)c1C(=O)OCC(=O)[C@H](CC(=O)O)NC(=O)[C@@H](NC(=O)[C@H](CCC(=O)O)NC(=O)[C@H](Cc1ccc(I)cc1)NC(=O)Cc1ccc(O)c([N+](=O)[O-])c1)C(C)O (stereo partly drawn) [AB18, NP-31-E-T-D-DMBA]
Caspase-3
  Ki(app) Caspase-3: 216,040 M^−1s^−1
  Caspase-3 Ki(app): 216,040 M-1s-1
Caspase-8
  Ki(app) Caspase-8: 572,012 M^−1s^−1
  Caspase-8 Ki (app): 572,012 M-1s-1
Caspase-9
  Ki(app) Caspase-9: 12,320 M^−1s^−1
  Caspase-9 Ki (app): 12,320 M-1s-1
Caspase-7
  Ki(app) Caspase-7: 234,945 M^−1s^−1
  Caspase-7 Ki (app): 234,945 M-1s-1

## Cc1cccc(C)c1C(=O)OCC(=O)[C@H](CC(=O)O)NC(=O)[C@@H](NC(=O)[C@H](CCC(=O)O)NC(=O)[C@H](Cc1ccc(I)cc1)NC(=O)Cc1ccc(O)c([N+](=O)[O-])c1)C1Cc2ccccc2C1 [AB19, NP-31-E-23-D-DMBA]
Caspase-3
  Ki(app) Caspase-3: 179,086 M^−1s^−1
  Caspase-3 Ki(app): 179,086 M-1s-1
Caspase-8
  inhibition of caspase-8, in words: retained relatively good potency for caspase-8
  Ki(app) Caspase-8: 396,225 M^−1s^−1
  Caspase-8 Ki (app): 396,225 M-1s-1
Caspase-9
  activity for caspase-9, in words: no measurable activity for caspase-9
Caspase-7
  Ki(app) Caspase-7: 42,994 M^−1s^−1
  Caspase-7 Ki (app): 42,994 M-1s-1

## Cc1ccc(C[C@H](NC(=O)Cc2ccc(O)c([N+](=O)[O-])c2)C(=O)N[C@@H](CCC(=O)O)C(=O)N[C@H](C(=O)N[C@@H](CC(=O)O)C(=O)COC(=O)c2c(C)cccc2C)C(C)O)cc1 (stereo partly drawn) [AB20, Np-29-E-T-D-DMBA]
Caspase-3
  Ki(app) Caspase-3: 570,900 M^−1s^−1
  Caspase-3 Ki(app): 570,900 M-1s-1
Caspase-8
  inhibition of caspase-8, in words: highest kinetic inhibition constants for caspase-8 that we have measured so far
  Ki(app) Caspase-8: 1,071,401 M^−1s^−1
  Caspase-8 Ki (app): 1,071,401 M-1s-1
Caspase-9
  Ki(app) Caspase-9: 41,300 M^−1s^−1
  Caspase-9 Ki (app): 41,300 M-1s-1
Caspase-7
  Ki(app) Caspase-7: 181,332 M^−1s^−1
  Caspase-7 Ki (app): 181,332 M-1s-1

## Cc1cccc(C)c1C(=O)OCC(=O)[C@H](CC(=O)O)NC(=O)C1(NC(=O)[C@H](CCC(=O)O)NC(=O)[C@H](CC(=O)O)NC(=O)Cc2ccc(O)c([N+](=O)[O-])c2)CC1 [AB29, Np-D-E-11-D-DMBA]
Caspase-3
  Caspase-3 Ki(app): 341,429 M-1s-1
Caspase-8
  Caspase-8 Ki (app): 90,503 M-1s-1

## Cc1ccc(C[C@H](NC(=O)[C@H](CC(=O)O)NC(=O)Cc2ccc(O)c([N+](=O)[O-])c2)C(=O)NC2(C(=O)N[C@@H](CC(=O)O)C(=O)COC(=O)c3c(C)cccc3C)CC2)cc1 [AB30, Np-D-30-11-D-DMBA]
Caspase-3
  Caspase-3 Ki(app): 448,179 M-1s-1

## Cc1ccc(C[C@@H](NC(=O)[C@H](CC(=O)O)NC(=O)Cc2ccc(O)c([N+](=O)[O-])c2)C(=O)N[C@H](C(=O)N[C@@H](CC(=O)O)C(=O)COC(=O)c2c(C)cccc2C)C(C)C)cc1 [AB31, Np-D-30-V-D-DMBA]
Caspase-3
  Caspase-3 Ki(app): 64,873 M-1s-1
